The text below walks through data of US20250281629A1, “COMPOSITIONS AND METHODS FOR ANTI-PHOSPHOCHOLINE ACTIVE IMMUNOTHERAPY” (Duke University, priority 2022, published 2025).

Where no end group is shown, it is not given here. C11H22NO6P = phosphorylcholine group attached via 2-methacryloyloxyethyl phosphorylcholine

Data set [1] has as its system C57BL/6 mice. The data set can be described thus: One cycle acute DSS-induced colitis, female and male mice. In kind it is in vivo, mouse. An excerpt: (§1) DSS-Induced Colitis and Assessment. Before inducing colitis, mice from each treatment group were divided amongst the cages to avoid any cage-related disease effects. This excluded the PBS without DSS (healthy) control mice which remained in their own cage and received normal drinking water for the duration of the experiment. Colitis was induced by administering 2% (w/v) colitis-grade dextran sodium sulfate (MP Biomedicals, 160110) in drinking water. For determination of prophylactic immunization efficacy, mice were immunized i.p. 3 times at days −35, −21 and −7 before colitis induction on Day 0. Chronic colitis was induced via DSS-containing water given for 5 days followed by 5 days of normal drinking water for 3 cycles, resulting in a 30-day model. A shorter, acute DSS-induced colitis model consisting of one cycle of colitis was achieved by giving 5 days of 2% DSS in water followed by 5 days of normal drinking water for a total of 10 days and was also examined in a preventative immunization scenario. Mice were weighed daily and evaluated for the IACUC approved humane endpoint of >30% weight loss as DSS mice regain weight quickly after DSS administration ceases. They were also monitored for occult blood with Hemoccult tape and developer (Beckman Coulter, 63202) and fecal consistency. Disease activity index (DAI) scores were a combination of weight loss (≥100%=0, 90-99%=1, 80-89%=2, >80%=3), occult blood (no blood=0, blood=3), and fecal consistency (hard=0, soft=1, softer=2, runny=3), with a possible daily maximum score of 9. […] At the experimental endpoint, mice were euthanized, and colon lengths were measured from the base of the cecum to the rectum using digital calibrators. To determine immunization efficacy in a therapeutic colitis setting, colitis was first induced by administering one cycle of colitis achieved by 5 days of 2% DSS in water followed by 5 days of normal drinking water for a total of 10 days. Mice were monitored daily as described above until they on average regained their original body weight on day 20. At this point, i.p. immunizations were initiated and given three times over a 4-week period on days 20, 32, and 45, and colitis monitoring was reduced to twice weekly. An additional cycle of colitis was then induced on day 51 via 5 days of 2% DSS in water followed by 5 days of normal drinking water for a total of 10 days with daily monitoring. The entire therapeutic model ended on day 60, and colon lengths were measured as described above.
Spleen Bacteria Measurements. At the conclusion of the DSS experiments, spleens were harvested and weighed followed by homogenization in 500 μL of 0.1% Triton X-100 in sterile 1×PBS using a Tissue Tearer handheld homogenizer (Biospec Products). 25 μL of homogenate solution was then spread on each quarter of culture plates consisting of tryptic soy broth No. 2 (Sigma, 51228) and Difco agar, granulated (BD Biosciences, 214530) in dilutions from 100 to 103. After a 48 hr incubation at 37° C., colony forming units (CFUs) were counted and converted to CFU/g of spleen tissue via the equations: […]
Colon IL-10 Quantification. At the conclusion of some DSS experiments, one half of the harvested mouse colons were flushed with PBS to remove fecal matter and flash frozen in liquid nitrogen. Later, colons were thawed on ice, weighed, and homogenized in 2 μL/mg of Tissue Extraction Reagent I (Thermo Fisher, FNN0071) with a protease inhibitor tablet (Thermo Fisher, A32955) using a Navy Bead Lysis Kit (Next Advance, NAVYE1). The amount of IL-10 in colon homogenate supernatants was then measured using an IL-10 mouse ELISA kit (Invitrogen, 88-7105-22) in accordance with the manufacturer's protocol.

Data set [2] has as its system C57BL/6 mice. The data set can be described thus: Therapeutic DSS colitis model (immunization between DSS cycles). The format is in vivo, mouse.
Text: as §1, with “consistency.” for “consistency. Disease activity index (DAI) scores were a combination of weight loss (≥100%=0, 90-99%=1, 80-89%=2, >80%=3), occult blood (no blood=0, blood=3), and fecal consistency (hard=0, soft=1, softer=2, runny=3), with a possible daily maximum score of 9.”, “To determine immunization efficacy in a therapeutic colitis setting, colitis was first induced by administering one cycle of colitis achieved by 5 days of 2% DSS in water followed by 5 days of normal drinking water for a total of 10 days.” left out, “At this point, i.p. immunizations were initiated and given three times over a 4-week period on days 20, 32, and 45, and colitis monitoring was reduced to twice weekly. An additional cycle of colitis was then induced on day 51 via 5 days of 2% DSS in water followed by 5 days of normal drinking water for a total of 10 days with daily monitoring.” left out
FITC-dextran Measurements. […] To determine the intestinal barrier permeability, serum samples were diluted in 1×PBS and FITC fluorescence intensity was measured at an excitation of 488 nm and emission of 520 nm. […]
Spleen Bacteria Measurements. […] After a 48 hr incubation at 37° C., colony forming units (CFUs) were counted and converted to CFU/g of spleen tissue via the equations: […]

The next data set relates to B1a cells (CD19^+CD5^+). The data set can be described thus: Colon B cell populations by flow cytometry: B1a cells. The following applies: vs other DSS-administered mice. The format is in vivo, mouse. The procedure:
(§2) Determination of Colon B cell Populations. Small colon samples collected from either after immunization only or after colitis experiments were collected at experimental endpoints. Colon samples were flushed with PBS and then digested in a solution containing 200 U/mL collagenase from Clostridium histolyticum (Sigma, C5138) and 0.1 mg/mL DNase I (Sigma, 10104159001) in 1×PBS. Digestion occurred at 37° C. while shaking for a total of 30 minutes. The solutions were then filtered to isolate cells, spun down, and transferred into ice cold flow buffer (2% heat-inactivated FBS in 1×PBS). The cells were blocked with mouse BD Fc Block (Clone: 2.4G2) (BD Biosciences, 553142) for 30 min on ice and then washed in flow buffer and stained with antibodies against CD5-APC (Clone: 53-7.3) (BioLegend, 100626), CD19-APC/Cy7 (Clone: 6D5) (BioLegend, 115530), B220-PE (Clone: RA3-6B2) (BioLegend, […]), and CD138-PE/Cy7 (Clone: 281-2) (BioLegend, […]) in flow buffer for 30 min on ice. Cells were washed and DAPI was added. Flow cytometry was then conducted on a BD FACSCanto II cytometer and the results were analyzed using FlowJo software.

Data set [3] concerns plasma cells (B220^+CD138^+). The data set can be described thus: Colon B cell populations by flow cytometry: plasma cells. In kind it is in vivo, mouse. To be noted: vs disease controls. The procedure:
as §2
Background: Flow cytometry measures light scatter and fluorescence of single cells or particles in a stream.

Data set [4] in a line: Zeta potential of nanofibers. The format is physicochemical. The following applies: 1 mM conjugate coassembled with 1 mM Q11; 0.2 mM in 1×PBS, 25° C. The procedure: Zeta Potential. Nanofibers were diluted to 0.2 mM in 1×PBS and zeta potential measurements were conducted at 25° C. using an Anton Paar Litesizer 500.

In the case of “(C11H22NO6P)n-CCCCSGSG-QQKFQFQFEQQ-NH2 (CCCCSGSGQQKFQFQFEQQ-NH2; not fully specified; cysteine pairing not given here; also: phosphorylcholine groups (C11H22NO6P) n=1-4, attachment not placed) [PCM-Q11, linear multi-PC conjugate]”, the colon lengths entry in the data set with C57BL/6 mice [1] (both sexes, vs CpG-immunized mice and DSS disease controls) was “increased colon lengths”. For the same substance, in the data set on C57BL/6 mice [1] (female), the “serum anti-PC IgM, female mice” value is recorded as “undetectable” and the “spleen colony forming units (CFUs), female mice” value is “dramatically decreased spleen colony forming units (CFUs)”. In addition, in the data set with C57BL/6 mice [1] (male), the “colon IL-10 levels, male mice” value is given as “not significantly reduced compared to healthy controls”; the “serum anti-PC IgM, male mice” value is listed as “significantly less anti-PC IgM than PCM-Q11/CpG”; the “spleen CFUs / bacterial spread, male mice” value is on record as “This trend was also present, though not statistically significant”. In the data set on C57BL/6 mice [1] (one cycle 2% DSS, 10 days, female), the “protective efficacy / disease metrics, female mice” value is given as “significant protective efficacy”. For the same substance, the “weight loss and disease activity index scores, male mice” value in the data set on C57BL/6 mice [1] (one cycle 2% DSS, male) was “improved weight loss and disease activity index scores”. Besides, the “anti-PC IgG responses in mice with prior DSS colitis” value in the data set with C57BL/6 mice [2] (i.p. days 20, 32, 45, without CpG, vs immunization in absence of prior colitis) is given as “higher anti-PC IgG responses”. Also, in the data set on C57BL/6 mice [2] (mouse, in vivo), the “IgG subclasses in mice with prior DSS colitis” value is given as “not altered”. The “anti-PC IgM response in mice with prior DSS colitis” value with C57BL/6 mice [2] (without CpG) is listed as “measurable anti-PC IgM response”. In the data set on B1a cells (CD19^+CD5^+), the “colonic B1a cells after chronic DSS colitis” value was “decrease in B1a cells”. In addition, the “colon plasma cells after chronic DSS colitis” value in data set [3] is listed as “more plasma cells than disease controls”.

For the substance “C11H22NO6P-CSGSG-QQKFQFQFEQQ-NH2 (C(C11H22NO6P)SGSGQQKFQFQFEQQ-NH2) [PC-Q11, phosphodiester PC-Q11]”, the “zeta potential (surface charge) of nanofibers” value in data set [4] is reported as “neutrally charged”.
